According to patent US20180148418A1, “AMIDO-SUBSTITUTED CYCLOHEXANE DERIVATIVES” (Bayer Pharma Aktiengesellschaft, priority 2015, published 2018):

What was measured:
[1] = test system: wildtype Wnt signaling cascade; assay: HEK293 TOP assay (Super TopFlash luciferase reporter, Wnt-3a stimulated); type: cell-based; details: Homo sapiens, HEK293, 16 h, HEK293 TOP reporter cells, Wnt3a at EC50, 16 hours
Summary of the method: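 Compound series (50 μM down to 15 nM, 3.16-fold) diluted from DMSO 50-fold into CAFTY buffer, pH 7.4, 2 mM Ca^2+, 0.01% BSA, applied to Wnt-3a-stimulated HEK293 TopFlash and FOP reporter lines in parallel. Cells seeded 10000/well 24 h before; luciferase signal measured.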

[2] = test system: HEK293 cells cotransfected with the FOP control vector; assay: HEK293 FOP assay (control reporter with non-functional TCF elements); type: cell-based; details: Homo sapiens, 16 hours
Summary of the method: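 Compound series from 50 μM down to 15 nM, prediluted in DMSO then 50-fold into CAFTY buffer (pH 7.4, 2 mM Ca2+, 0.01% BSA), tested alongside TOP cells on a Geneticin-selected HEK293 FOP line whose TCF elements are replaced by a random sequence; recombinant human Wnt-3a applied at 2500-5 ng/ml.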

TNKS2 = target: T1, TNKS2 (Homo sapiens, UniProt Q9H2K2); assay: TNKS2 Assay B (auto-parsylation, [3H]-NAD+ SPA); type: biochemical; details: 6 nM TNKS2, auto-parsylation, over night at room temperature
T1 construct: purchased BPS Bioscience, San Diego, USA 80572 (TNKS2 Histone Ribosylation Assay Kit)
T1 sequence (Q9H2K2 1-1166): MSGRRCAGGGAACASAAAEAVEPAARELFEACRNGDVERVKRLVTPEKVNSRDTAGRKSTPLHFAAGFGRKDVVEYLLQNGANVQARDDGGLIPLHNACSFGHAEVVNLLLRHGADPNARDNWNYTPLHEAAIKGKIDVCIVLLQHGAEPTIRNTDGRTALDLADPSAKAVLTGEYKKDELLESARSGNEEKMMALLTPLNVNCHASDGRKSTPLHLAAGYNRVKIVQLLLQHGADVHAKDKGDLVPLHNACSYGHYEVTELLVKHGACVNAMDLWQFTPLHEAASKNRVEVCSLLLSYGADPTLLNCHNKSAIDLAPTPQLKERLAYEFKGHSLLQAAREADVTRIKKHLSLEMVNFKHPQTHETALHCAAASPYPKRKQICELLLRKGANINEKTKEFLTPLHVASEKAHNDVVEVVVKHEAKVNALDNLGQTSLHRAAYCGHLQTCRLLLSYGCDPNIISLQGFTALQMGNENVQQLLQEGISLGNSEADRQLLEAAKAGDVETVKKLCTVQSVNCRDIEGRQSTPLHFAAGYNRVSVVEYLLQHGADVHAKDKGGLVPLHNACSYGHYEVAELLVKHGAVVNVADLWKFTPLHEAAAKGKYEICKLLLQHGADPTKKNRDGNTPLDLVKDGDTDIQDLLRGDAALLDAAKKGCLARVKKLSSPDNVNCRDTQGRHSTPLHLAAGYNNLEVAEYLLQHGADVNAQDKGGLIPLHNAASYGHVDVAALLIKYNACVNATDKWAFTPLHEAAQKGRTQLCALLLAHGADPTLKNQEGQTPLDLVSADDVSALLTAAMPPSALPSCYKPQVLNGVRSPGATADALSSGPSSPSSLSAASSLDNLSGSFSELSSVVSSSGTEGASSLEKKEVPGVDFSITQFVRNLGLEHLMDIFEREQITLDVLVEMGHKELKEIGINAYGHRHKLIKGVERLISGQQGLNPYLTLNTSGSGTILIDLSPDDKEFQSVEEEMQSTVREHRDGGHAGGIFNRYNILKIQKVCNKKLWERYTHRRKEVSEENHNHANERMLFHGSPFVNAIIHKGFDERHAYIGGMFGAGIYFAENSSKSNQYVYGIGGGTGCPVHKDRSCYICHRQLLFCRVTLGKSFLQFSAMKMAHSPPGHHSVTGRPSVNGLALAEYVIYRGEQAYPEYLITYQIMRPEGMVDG

## Cc1cc(C)n2ncc(C(=O)N[C@H]3CC[C@@]4(CCN(c5ccccc5Cl)C4=O)CC3)c2n1 [Example 257, N-[(trans)-2-(2-chlorophenyl)-1-oxo-2-azaspiro[4.5]dec-8-yl]-5,7-dimethylpyrazolo[1,5-a]pyrimidine-3-carboxamide]
[1]
  IC50: 1.4 nM
[2]
  IC50: ≥ 50000 nM
TNKS2
  IC50: 5.7 nM

## CCNC(=O)c1nc[nH]c1C(=O)N[C@H]1CC[C@@]2(CCN(c3ccccc3Cl)C2=O)CC1 [Example 258, N^5-[(trans)-2-(2-chlorophenyl)-1-oxo-2-azaspiro[4.5]dec-8-yl]-N^4-ethyl-1H-imidazole-4,5-dicarboxamide]
[1]
  IC50: 2.3 nM
[2]
  IC50: ≥ 50000 nM
TNKS2
  IC50: 6.3 nM

## COCCNC(=O)c1nc[nH]c1C(=O)N[C@H]1CC[C@@]2(CCN(c3ccccc3Cl)C2=O)CC1 [Example 259, N^5-[(trans)-2-(2-chlorophenyl)-1-oxo-2-azaspiro[4.5]dec-8-yl]-N^4-(2-methoxyethyl)-1H-imidazole-4,5-dicarboxamide]
[1]
  IC50: 8.6 nM
[2]
  IC50: ≥ 50000 nM
TNKS2
  IC50: 6.3 nM

## CC1CCN(CCNC(=O)c2nc[nH]c2C(=O)N[C@H]2CC[C@@]3(CCN(c4ccccc4Cl)C3=O)CC2)CC1 [Example 260, N^5-[(trans)-2-(2-chlorophenyl)-1-oxo-2-azaspiro[4.5]dec-8-yl]-N^4-[2-(4-methylpiperidin-1-yl)ethyl]-1H-imidazole-4,5-dicarboxamide]
[1]
  IC50: 2.8 nM
[2]
  IC50: ≥ 50000 nM
TNKS2
  IC50: 1.7 nM

## CNC(=O)c1nc[nH]c1C(=O)N[C@H]1CC[C@@]2(CCN(c3ccccc3Cl)C2=O)CC1 [Example 264, N^5-[(trans)-2-(2-chlorophenyl)-1-oxo-2-azaspiro[4.5]dec-8-yl]-N^4-methyl-1H-imidazole-4,5-dicarboxamide]
[1]
  IC50: 2.3 nM
[2]
  IC50: 33000 nM
TNKS2
  IC50: 4 nM

## Cc1cc(N2CC[C@]3(CC[C@@H](NC(=O)c4cnc5cccnn45)CC3)C2=O)c(Cl)cc1F [Example 265, N-[(trans)-2-(2-chloro-4-fluoro-5-methylphenyl)-1-oxo-2-azaspiro[4.5]dec-8-yl]imidazo[1,2-b]pyridazine-3-carboxamide]
[1]
  IC50: 3.5 nM
[2]
  IC50: ≥ 50000 nM
TNKS2
  IC50: 4.8 nM

## Cc1cc(C)n2ncc(C(=O)N[C@H]3CC[C@@]4(CCN(c5cc(C)c(F)cc5Cl)C4=O)CC3)c2n1 [Example 266, N-[(trans)-2-(2-chloro-4-fluoro-5-methylphenyl)-1-oxo-2-azaspiro[4.5]dec-8-yl]-5,7-dimethylpyrazolo[1,5-a]pyrimidine-3-carboxamide]
[1]
  IC50: 6.6 nM
[2]
  IC50: ≥ 50000 nM
TNKS2
  IC50: 6.8 nM

## Cc1cc(N2CC[C@]3(CC[C@@H](NC(=O)c4cnn5cccnc45)CC3)C2=O)c(Cl)cc1F [Example 267, N-[(trans)-2-(2-chloro-4-fluoro-5-methylphenyl)-1-oxo-2-azaspiro[4.5]dec-8-yl]pyrazolo[1,5-a]pyrimidine-3-carboxamide]
[1]
  IC50: 3.2 nM
[2]
  IC50: ≥ 50000 nM
TNKS2
  IC50: 5.2 nM

## O=C(N[C@H]1CC[C@@]2(CCN(c3cccc(Cl)c3)C2=O)CC1)c1cnn2cccnc12 [Example 268, N-[(trans)-2-(3-chlorophenyl)-1-oxo-2-azaspiro[4.5]dec-8-yl]pyrazolo[1,5-a]pyrimidine-3-carboxamide]
[1]
  IC50: 76 nM
[2]
  IC50: ≥ 50000 nM
TNKS2
  IC50: 230 nM

## O=C(N[C@H]1CC[C@@]2(CCN(c3cccc(Cl)c3)C2=O)CC1)c1cnc2cccnn12 [Example 269, N-[(trans)-2-(3-chlorophenyl)-1-oxo-2-azaspiro[4.5]dec-8-yl]imidazo[1,2-b]pyridazine-3-carboxamide]
[1]
  IC50: 65 nM
[2]
  IC50: ≥ 50000 nM
TNKS2
  IC50: 290 nM

## Cc1cc(C)n2ncc(C(=O)N[C@H]3CC[C@@]4(CCN(c5cccc(Cl)c5)C4=O)CC3)c2n1 [Example 270, N-[(trans)-2-(3-chlorophenyl)-1-oxo-2-azaspiro[4.5]dec-8-yl]-5,7-dimethylpyrazolo[1,5-a]pyrimidine-3-carboxamide]
[1]
  IC50: 8.9 nM
[2]
  IC50: ≥ 50000 nM
TNKS2
  IC50: 280 nM

## O=C(N[C@H]1CC[C@@]2(CCN(c3ccccc3Cl)C2=O)CC1)c1cnc2cccnn12 [Example 271, N-[(trans)-2-(2-chlorophenyl)-1-oxo-2-azaspiro[4.5]dec-8-yl]imidazo[1,2-b]pyridazine-3-carboxamide]
[1]
  IC50: 3.6 nM
[2]
  IC50: ≥ 50000 nM
TNKS2
  IC50: 5.9 nM

## CNC(=O)c1nc[nH]c1C(=O)N[C@H]1CC[C@@]2(CCN(c3cccc(Cl)c3)C2=O)CC1 [Example 276, N^5-[(trans)-2-(3-chlorophenyl)-1-oxo-2-azaspiro[4.5]dec-8-yl]-N^4-methyl-1H-imidazole-4,5-dicarboxamide]
[1]
  IC50: 27 nM
[2]
  IC50: 32000 nM
TNKS2
  IC50: 89 nM

## CCNC(=O)c1nc[nH]c1C(=O)N[C@H]1CC[C@@]2(CCN(c3cccc(Cl)c3)C2=O)CC1 [Example 277, N^5-[(trans)-2-(3-chlorophenyl)-1-oxo-2-azaspiro[4.5]dec-8-yl]-N^4-ethyl-1H-imidazole-4,5-dicarboxamide]
[1]
  IC50: 40 nM
[2]
  IC50: 31000 nM
TNKS2
  IC50: 150 nM

## CC(C)NC(=O)c1nc[nH]c1C(=O)N[C@H]1CC[C@@]2(CCN(c3cccc(Cl)c3)C2=O)CC1 [Example 278, N^5-[(trans)-2-(3-chlorophenyl)-1-oxo-2-azaspiro[4.5]dec-8-yl]-N^4-(propan-2-yl)-1H-imidazole-4,5-dicarboxamide]
[1]
  IC50: 90 nM
[2]
  IC50: ≥ 50000 nM
TNKS2
  IC50: 170 nM

## O=C(NC1CC1)c1nc[nH]c1C(=O)N[C@H]1CC[C@@]2(CCN(c3cccc(Cl)c3)C2=O)CC1 [Example 279, N^5-[(trans)-2-(3-chlorophenyl)-1-oxo-2-azaspiro[4.5]dec-8-yl]-N^4-cyclopropyl-1H-imidazole-4,5-dicarboxamide]
[1]
  IC50: 64 nM
[2]
  IC50: ≥ 50000 nM
TNKS2
  IC50: 170 nM

## O=C(N[C@H]1CC[C@@]2(CCN(c3cccc(Cl)c3)C2=O)CC1)c1[nH]cnc1C(=O)N1CC(F)C1 [Example 280, N-[(trans)-2-(3-chlorophenyl)-1-oxo-2-azaspiro[4.5]dec-8-yl]-4-[(3-fluoroazetidin-1-yl)carbonyl]-1H-imidazole-5-carboxamide]
[1]
  IC50: 23 nM
[2]
  IC50: ≥ 50000 nM
TNKS2
  IC50: 94 nM

## O=C(NCC(F)(F)F)c1nc[nH]c1C(=O)N[C@H]1CC[C@@]2(CCN(c3cccc(Cl)c3)C2=O)CC1 [Example 281, N^5-[(trans)-2-(3-chlorophenyl)-1-oxo-2-azaspiro[4.5]dec-8-yl]-N^4-(2,2,2-trifluoroethyl)-1H-imidazole-4,5-dicarboxamide]
[1]
  IC50: 43 nM
[2]
  IC50: ≥ 50000 nM
TNKS2
  IC50: 280 nM

## COCCNC(=O)c1nc[nH]c1C(=O)N[C@H]1CC[C@@]2(CCN(c3cccc(Cl)c3)C2=O)CC1 [Example 282, N^5-[(trans)-2-(3-chlorophenyl)-1-oxo-2-azaspiro[4.5]dec-8-yl]-N^4-(2-methoxyethyl)-1H-imidazole-4,5-dicarboxamide]
[1]
  IC50: 41 nM
[2]
  IC50: 8000 nM
TNKS2
  IC50: 160 nM
